# Reference: patent US20210308089A1, “METHODS OF TREATING AND/OR PREVENTING VIRAL INFECTIONS AND/OR DISEASES CAUSED BY VIRUSES IN A SUBJECT IN NEED THEREOF” (priority 2020, published 2021)
# Test system: patients of the REDUCE-IT and earlier EPA placebo-controlled trials
# Assay: Example 3: adverse events by risk ratio, icosapent ethyl vs placebo (candidate categories; infectious disease terms of interest)
# Settings: R-I
compound,measurement,value
"CC/C=C\C/C=C\C/C=C\C/C=C\C/C=C\CCCC(=O)OCC [icosapent ethyl, eicosapentaenoic acid ethyl ester]",ARR: Bone Fractures (AE table),0.0%
same,ARR: Bronchiectasis (AE table),−0.1%
same,ARR: Bronchitis chronic (AE table),−0.1%
same,ARR: CKD (AE table),0.1%
same,ARR: COPD (AE table),0.2%
same,ARR: Carotid bruit (AE table),−0.3%
same,ARR: Cholestasis (AE table),0.0%
same,ARR: Chrohn's Disease (AE table),−0.0%
same,ARR: Cognitive Decline: Attention disorders and disturbances (AE table),0.0%
same,ARR: Cognitive Decline: Cognitive and attention disorders and disturbances (AE table),0.0%
same,ARR: Cough (AE table),0.0%
same,ARR: Decreased Appetite (AE table),0.5%
same,ARR: Deep Venous Thromboembolism (AE table),−0.1%
same,ARR: Depression: Depressed mood disorders and disturbances (AE table),0.3%
same,ARR: Depression: Depressive disorders (AE table),0.3%
same,ARR: Depression: Depressive disorders - Agitated depression (AE table),0.0%
same,ARR: Depression: Depressive disorders - Depression (AE table),0.2%
same,ARR: Depression: Depressive disorders - Major depression (AE table),0.0%
same,ARR: Depression: Depressive disorders - Persistent depressive disorder (AE table),0.0%
same,ARR: Depression: Mood alterations - Depressed mood (AE table),0.0%
same,ARR: Depression: Mood alterations - Depressive symptom (AE table),−0.0%
same,ARR: Depression: Mood alterations with depressive symptoms (AE table),−0.0%
same,ARR: Dermatitis psoriasiform (AE table),0.0%
same,"ARR: Dermatitis, allergic (AE table)",−0.2%
same,ARR: Diabetic Nephropathy (AE table),−0.0%
same,ARR: ESRD (AE table),−0.0%
same,ARR: Ear infection (AE table),−0.2%
same,ARR: Embolism and Thrombosis (AE table),0.1%
same,ARR: Emphysema (AE table),−0.2%
same,ARR: Epilepsy (AE table),0.0%
same,ARR: Erectile dysfunction (AE table),−0.4%
same,ARR: Furuncle (AE table),−0.1%
same,"ARR: Gastroenteritis, viral (AE table)",−0.3%
same,ARR: Gastroesophageal reflux (AE table),−0.1%
same,ARR: Gingivitis (AE table),−0.1%
same,ARR: Glomerulonephritis and Nephrotic Syndrome (AE table),−0.1%
same,ARR: Guttate psoriasis (AE table),0.0%
same,ARR: Helicobacter infection (AE table),−0.1%
same,ARR: Hepatitis C (AE table),0.0%
same,ARR: Herpes Zoster (AE table),−0.1%
same,ARR: Herpes simplex (AE table),−0.1%
same,ARR: Hyperglycemia (AE table),−0.5%
same,ARR: Hyperkalemia (AE table),−0.6%
same,ARR: Hypertension (AE table),−0.6%
same,ARR: Hypertensive Crisis (AE Table),−0.3%
same,ARR: Hypokalemia (AE table),0.1%
same,ARR: Hypomagnesemia (AE table),−0.3%
same,ARR: Infected bite (AE table),−0.0%
same,ARR: Influenza (AE table),−0.2%
same,ARR: Influenza like illness (AE table),−0.1%
same,ARR: Jaundice cholestatic (AE table),0.1%
same,ARR: Large intestine polyps (AE table),−0.2%
same,ARR: Limb Fractures and Dislocations (AE table),−0.1%
same,ARR: Lupus (AE table),−0.0%
same,ARR: Microalbuminuria (AE table),−0.3%
same,ARR: Migraine (AE table),0.2%
same,ARR: Mucosal inflammation (AE table),−0.0%
same,ARR: Multiple Sclerosis (AE table),−0.0%
same,ARR: Muscle spasms (AE table),−1.1%
same,ARR: NASH (AE table),−0.1%
same,ARR: NASH for b/l NFS >0.675 (AE table),−0.4%
same,ARR: NASH+Hepatic Steatosis for NFS >0.675 (AE table),−0.5%
same,"ARR: Nasopharyngitis, Mild Severity (AE table)",−0.2%
same,ARR: Nephrolithiasis (AE table),0.1%
same,ARR: Nephropathies (AE table),−0.2%
same,ARR: Nephrotic Syndrome (AE table),−0.0%
same,ARR: Orthopnea (AE table),−0.1%
same,ARR: PTSD (AE table),−0.0%
same,ARR: Pancytopenia (AE table),−0.1%
same,ARR: Pneumonia (AE table),−0.3%
same,ARR: Proteinuria (AE table),−0.2%
same,ARR: Psoriasis (AE table),0.3%
same,ARR: Psoriatic Conditions (AE table),0.3%
same,ARR: Psychosis: Psychotic disorder NEC (AE table),−0.0%
same,ARR: Pulmonary Edema (AE table),−0.2%
same,ARR: Respiratory Failure (AE table),−0.0%
same,ARR: Respiratory tract infection (AE table),−0.1%
same,ARR: Rheumatoid Arthritis (AE table),−0.1%
same,ARR: Rhinitis (AE table),−0.1%
same,ARR: Schizophrenia NEC (AE table),−0.0%
same,ARR: Sepsis (AE table),−0.2%
same,ARR: Severe chronic obstructive pulmonary disease (AE table),−0.1%
same,"ARR: Severe dermatitis, allergic (AE table)",−0.1%
same,ARR: Severe gastroenteritis (AE table),−0.1%
same,ARR: Severe sepsis (AE table),−0.2%
same,ARR: Severe systemic inflammatory response syndrome (AE table),−0.1%
same,ARR: Severe urinary tract infection (AE table),−0.2%
same,ARR: Systemic inflammatory response syndrome (AE table),−0.1%
same,ARR: Tooth infection (AE table),−0.2%
same,ARR: Ulcerative Colitis (AE table),−0.0%
same,ARR: Upper respiratory tract infection (AE table),−0.2%
same,ARR: Vascular hypertensive disorder (AE table),−0.8%
same,ARR: Vulvovaginal mycotic infection (AE table),−0.1%
same,ARR: Wheezing (AE table),−0.3%
same,NNT: ADHD (AE table),−8362005
same,NNT: Allergic sinusitis (AE table),2046
same,NNT: Alzheimer's Disease (AE table),−3344802
same,NNT: Asthma (AE table),−1019
same,NNT: Atelectasis (AE table),372
same,NNT: Bipolar Disease (AE table),2045
same,NNT: Blood CPK increased (AE table),164
same,NNT: Blood glucose increased (AE table),682
same,NNT: Bone Fractures (AE table),−4088
same,NNT: Bronchiectasis (AE table),1364
same,NNT: Bronchitis chronic (AE table),1023
same,NNT: CKD (AE table),−680
same,NNT: COPD (AE table),−453
